Laboratory results reported in patent US20220267390A1, “MPS MODIFIED PEPTIDES AND USE THEREOF” (The Regents of the University of California, priority 2019, published 2022).
Where no end group is shown, it is not given here.

How the values were obtained:
[1] = test system: normal human epithelial cells; conditions: earlier work of Applicant (refs 14, 16); cited from earlier work
[2] = test system: primary IPF fibroblast cells; test: Cell motility and colony-forming ability of primary IPF fibroblasts; assay type: cell-based, human
Description: FIGS. 4A-4B: MARCKS inhibition using MPS peptide reduced primary IPF fibroblast cell motility (FIG. 4A) and colony-forming ability (FIG. 4B) n=4; *, p<0.05.
An in vitro cell migration assay was performed as previously described^13, 14 using Transwell chambers (8-μm pore size; Costar, Cambridge, Mass.). Briefly, 2×10^4 cells were seeded on top of the polycarbonate filters, and 0.5 ml of growth medium with scrambled or MPS peptide (100 μM) was added to both the upper and lower wells. After incubation for 20 hours, filters were swabbed with a cotton swab, fixed with methanol, and then stained with Giemsa solution (Sigma). The cells attached to the lower surface of the filter were counted under a light microscope (10× magnification).
Cells were seeded onto 96-well plates at a density of 5-10×10^3 cells per well and cultured for the indicated treatment. Cell proliferation was evaluated using a MTS assay kit (Promega, Madison, Wis.). Twenty microliters of the combined MTS/PMS solution was added into each well, incubated for 3 hours at 37° C., and the absorbance was measured at 490 nm by using an ELISA reader. […] After 72 hours, both attached and detached cells were collected and then stained with 0.2% trypan blue (0.1% final concentration), and the number of trypan blue-positive and -negative cells was counted using a haemocytometer under low-power microscopy. […]

[3] = test system: phospho-MARCKS, phospho-AKT and α-SMA; test: Western blot in lung fibroblast cells isolated from bleomycin-treated mice; assay type: cell-based; conditions: 100 μM, 48 hours, fibroblasts from bleomycin-treated mice
Description: FIGS. 7A-7B: (FIG. 7A) Western blots analysis of phospho-MARCKS, phospho-AKT and α-SMA expression in lung fibroblast cells isolated from saline- or bleomycin-treated mice after 48 hours of treatment with control or MPS peptides (100 μM). (FIG. 7B) Effect of MPS peptide on cell viability of lung fibroblasts isolated from saline- (mFb-Saline) or bleomycin-treated (mFb-Bleomycin) mice (n=4; *, p<0.05).
MPS peptide potentially serves as an antifibrotic agent in bleomycin-induced pulmonary fibrosis. Bleomycin remains the standard agent for induction of experimental pulmonary fibrosis in animals^23. Thus, 8-week-old female C57BL/6J mice received saline or bleomycin intratracheally (33 μg in […] of saline) as previously described^23. Lung specimens from bleomycin- or saline-treated mice were collected and subjected to immunofluorescence staining. […] Next, lung fibroblast cells isolated from saline- or bleomycin-treated mice (two mice fibroblast cell lines were gifts from Dr. Sem H. Phan, University of Michigan School of Medicine, MI) were incubated with either 100 μM control or MPS peptide for 48 hours. […] The feasibility of the MPS peptide as an antifibrotic agent in a bleomycin-induced pulmonary fibrosis was tested. […] Saline- and bleomycin-exposed mice then were treated with either PBS or MPS peptide (28 mg/kg) intraperitoneally every other day. To ascertain the therapeutic effect of MPS peptide on pulmonary fibrosis, MPS was administered intraperitoneally during the “fibrotic” phase of the model. […]
Western blot analyses and the preparations of whole-cell lysates have been previously described^14, 16, 27 For whole cell lysates, cells were lysed in a lysis buffer (50 mM Tris-HCl (pH 7.4), 1% Triton X-100, 10% glycerol, 150 mM NaCl, 1 mM EDTA, 20 μg/ml leupeptin, 1 mM PMSF and 20 μg/ml aprotinin) and separated by SDS-PAGE. […] The cells were mounted onto slides and visualized using fluorescence microscopy (model Axiovert 100; Carl Zeiss, Oberkochen, Germany) or a Zeiss LSM510 laser-scanning confocal microscope image system.

KKKKKRFSFKKSFKLSGFSFKKNKK [MPS peptide]
cytotoxic effect on normal human epithelial cells [1]: no cytotoxic effect | cell motility [2]: reduces | proliferation (colony-forming ability) [2]: reduces | phospho-AKT expression [3]: decrease | phospho-MARCKS expression [3]: decrease | α-SMA expression [3]: decrease
